Where a name gives a salt, the structure may show the parent alone.
melting point | Structure (SMILES)
211 to 212 °C | O=C(c1ccc(-c2ccc3c(c2)CCN([C@@H]2CCN(C4CCC4)C2)C3=O)c(F)c1)N1CCCC1 (as salt: hydrochloride) [Example 79, 2-[(3R)-1-cyclobutylpyrrolidin-3-yl]-6-[2-fluoro-4-(pyrrolidin-1-ylcarbonyl)phenyl]-3,4-dihydroisoquinolin-1(2H)-one]
> 300 °C | O=C(c1ccc(-c2ccc3c(c2)CCN(C2CCN(C4CCCC4)CC2)C3=O)cc1)N1CCCC1 (as salt: hydrochloride) [Example 66, 2-(1-cyclopentylpiperidin-4-yl)-6-[4-(pyrrolidin-1-ylcarbonyl)phenyl]-3,4-dihydroisoquinolin-1(2H)-one]
302 to 303 °C | CNC(=O)c1ccc(COc2ccc3c(c2)CCN(C2CCN(C4CCC4)CC2)C3=O)cc1 (as salt: hydrochloride) [Example 16, 4-({[2-(1-Cyclobutylpiperidin-4-yl)-1-oxo-1,2,3,4-tetrahydroisoquinolin-6-yl]oxy}methyl)-N-methylbenzamide]
> 300 °C | CC(C)N1CCC(N2CCc3cc(-c4ccc(C(=O)N5CCCC5)cc4)ccc3C2=O)CC1 (as salt: hydrochloride) [Example 67, 2-(1-isopropylpiperidin-4-yl)-6-[4-(pyrrolidin-1-ylcarbonyl)phenyl]-3,4-dihydroisoquinolin-1(2H)-one]
254 to 256 °C | O=C(c1ccc(-c2ccc3c(c2)CCN([C@@H]2CCN(Cc4ccoc4)C2)C3=O)cc1)N1CCCC1 (as salt: hydrochloride) [Example 60, 2-[(3R)-1-(furan-3-ylmethyl)pyrrolidin-3-yl]-6-[4-(pyrrolidin-1-ylcarbonyl)phenyl]-3,4-dihydroisoquinolin-1(2H)-one]
309 to 310 °C | NC(=O)c1ccc(Oc2ccc3c(c2)CCN(C2CCN(C4CCC4)CC2)C3=O)cc1 (as salt: hydrochloride) [Example 3, 4-{[2-(1-cyclobutylpiperidin-4-yl)-1-oxo-1,2,3,4-tetrahydroiso-quinolin-6-yl]oxy}benzamide Hydrochloride]
317 to 318 °C | CCNC(=O)c1ccc(Oc2ccc3c(c2)CCN(C2CCN(C4CCC4)CC2)C3=O)cc1 (as salt: hydrochloride) [Example 5, 4-{[2-(1-Cyclobutylpiperidin-4-yl)-1-oxo-1,2,3,4-tetrahydroisoquinolin-6-yl]oxy}-N-ethylbenzamide]
309 to 311 °C | CC(C)NC(=O)c1ccc(Oc2ccc3c(c2)CCN(C2CCN(C4CCC4)CC2)C3=O)cc1 (as salt: hydrochloride) [Example 6, 4-{[2-(1-Cyclobutylpiperidin-4-yl)-1-oxo-1,2,3,4-tetrahydroisoquinolin-6-yl]oxy}-N-isopropylbenzamide]
292 to 293 °C | NC(=O)c1ccc(COc2ccc3c(c2)CCN(C2CCN(C4CCC4)CC2)C3=O)cc1 (as salt: hydrochloride) [Example 15, 4-({[2-(1-cyclobutylpiperidin-4-yl)-1-oxo-1,2,3,4-tetrahydroiso-quinolin-6-yl]oxy}methyl)benzamide acid hydrochloride]
235 to 236 °C | O=C(c1ccc(-c2ccc3c(c2)CCN([C@@H]2CCN(C4CCC4)C2)C3=O)cc1F)N1CCCC1 (as salt: hydrochloride) [Example 48, 2-[(3R)-1-cyclobutylpyrrolidin-3-yl]-6-[3-fluoro-4-(pyrrolidin-1-ylcarbonyl)phenyl]-3,4-dihydroisoquinolin-1(2H)-one]
> 273 °C | O=C(c1ccc(-c2ccc3c(c2)CCN(C2CCNCC2)C3=O)cc1)N1CCCC1 [Example 64, 2-(piperidin-4-yl)-6-(4-(pyrrolidine-1-carbonyl)phenyl)-3,4-dihydroisoquinolin-1(2H)-one]
> 310 °C | CNC(=O)c1ccc(Oc2ccc3c(c2)CCN(C2CCN(C4CCC4)CC2)C3=O)cc1 (as salt: hydrochloride) [Example 4, 4-{[2-(1-Cyclobutylpiperidin-4-yl)-1-oxo-1,2,3,4-tetrahydroisoquinolin-6-yl]oxy}-N-methylbenzamide]
262 to 264 °C | CN(C)C(=O)c1ccc(Oc2ccc3c(c2)CCN(C2CCN(C4CCC4)CC2)C3=O)cc1 (as salt: hydrochloride) [Example 10, 4-{[2-(1-Cyclobutylpiperidin-4-yl)-1-oxo-1,2,3,4-tetrahydroisoquinolin-6-yl]oxy}-N,N-dimethylbenzamide]
> 300 °C | N#Cc1ccc(-c2ccc3c(c2)CN(C2CCN(C4CCCCC4)CC2)C3=O)cc1 (as salt: hydrochloride) [Example 30, 4-[2-(1-Cyclohexylpiperidin-4-yl)-1-oxo-2,3-dihydro-1H-isoindol-5-yl]benzonitrile]
309 to 310 °C | N#Cc1ccc(-c2ccc3c(c2)CN(C2CCN(CC4CC4)CC2)C3=O)cc1 (as salt: hydrochloride) [Example 26, 4-{2-[1-(Cyclopropylmethyl)piperidin-4-yl]-1-oxo-2,3-dihydro-1H-isoindol-5-yl}benzonitrile]
263 to 265 °C | CNC(=O)c1ccc(-c2ccc3c(c2)CCN([C@@H]2CCN(C4CCC4)C2)C3=O)cc1 (as salt: hydrochloride) [Example 44, 4-{2-[(3R)-1-cyclobutylpyrrolidin-3-yl]-1-oxo-1,2,3,4-tetrahydroisoquinolin-6-yl}-N-methylbenzamide]
> 300 °C | N#Cc1ccc(-c2ccc3c(c2)CN(C2CCN(CC4CCCC4)CC2)C3=O)cc1 (as salt: hydrochloride) [Example 27, 4-{2-[1-(Cyclopentylmethyl)piperidin-4-yl]-1-oxo-2,3-dihydro-1H-isoindol-5-yl}benzonitrile]
270 °C (dec.) | N#Cc1ccc(-c2ccc3c(c2)CN(C2CCN(C4CCCC4)CC2)C3=O)cc1 (as salt: hydrochloride) [Example 29, 4-[2-(1-Cyclopentylpiperidin-4-yl)-1-oxo-2,3-dihydro-1H-isoindol-5-yl]benzonitrile]
> 250 °C | O=C(c1ccc(-c2ccc3c(c2)CCN([C@@H]2CCCN(C4CCCC4)C2)C3=O)cc1)N1CCCC1 (as salt: hydrochloride) [Example 71, 2-[(3R)-1-cyclopentylpiperidin-3-yl]-6-[4-(pyrrolidin-1-ylcarbonyl)phenyl]-3,4-dihydroisoquinolin-1(2H)-one]
> 270 °C | CCNC(=O)c1ccc(-c2ccc3c(c2)CCN([C@@H]2CCN(C(C)C)C2)C3=O)cc1 (as salt: hydrochloride) [Example 83, N-ethyl-4-{2-[(3R)-1-isopropylpyrrolidin-3-yl]-1-oxo-1,2,3,4-tetrahydroisoquinolin-6-yl}benzamide]
287 to 288 °C | O=C(c1ccc(-c2ccc3c(c2)CCN([C@@H]2CCN(CC4CC4)C2)C3=O)cc1)N1CCCC1 (as salt: hydrochloride) [Example 58, 2-[(3R)-1-(cyclopropylmethyl)pyrrolidin-3-yl]-6-[4-(pyrrolidin-1-ylcarbonyl)phenyl]-3,4-dihydroisoquinolin-1(2H)-one]
> 274 °C | O=C1NCCc2cc(-c3ccc4c(c3)CCN([C@@H]3CCN(C5CCC5)C3)C4=O)ccc21 (as salt: hydrochloride) [Example 89, (R)-2-(1-cyclobutylpyrrolidin-3-yl)-3,3′,4,4′-tetrahydro-6,6′-biisoquinoline-1,1′(2H,2′H)-dione hydrochloride]
254 to 256 °C | O=C(c1ccc(-c2ccc3c(c2)CCN([C@@H]2CCN(Cc4ccco4)C2)C3=O)cc1)N1CCCC1 (as salt: hydrochloride) [Example 61, 2-[(3R)-1-(furan-2-ylmethyl)pyrrolidin-3-yl]-6-[4-(pyrrolidin-1-ylcarbonyl)phenyl]-3,4-dihydroisoquinolin-1(2H)-one]
288 to 290 °C | O=C(c1ccc(-c2ccc3c(c2)CCN([C@@H]2CCN(CC4CCCC4)C2)C3=O)cc1)N1CCCC1 (as salt: hydrochloride) [Example 59, 2-[(3R)-1-(cyclopentylmethyl)pyrrolidin-3-yl]-6-[4-(pyrrolidin-1-ylcarbonyl)phenyl]-3,4-dihydroisoquinolin-1(2H)-one]
245 to 247 °C | CNC(=O)c1ccc(-c2ccc3c(c2)CCN([C@@H]2CCN(C(C)C)C2)C3=O)c(F)c1 (as salt: hydrochloride) [Example 85, 3-fluoro-4-{2-[(3R)-1-isopropylpyrrolidin-3-yl]-1-oxo-1,2,3,4-tetrahydroisoquinolin-6-yl}-N-methylbenzamide]
215 to 217 °C | O=C(c1ccc(-c2ccc3c(c2)CCN([C@@H]2CCN(C4CCC4)C2)C3=O)cc1)N1CCCC1 (as salt: hydrochloride) [Example 47, 2-[(3R)-1-cyclobutylpyrrolidin-3-yl]-6-[4-(pyrrolidin-1-ylcarbonyl)phenyl]-3,4-dihydroisoquinolin-1(2H)-one]
178 to 180 °C | CCNC(=O)c1ccc(Oc2ccc3c(c2)CCN([C@@H]2CCN(C4CCCC4)C2)C3=O)cc1 (as salt: hydrochloride) [Example 38, 4-({2-[(3R)-1-cyclopentylpyrrolidin-3-yl]-1-oxo-1,2,3,4-tetrahydroisoquinolin-6-yl}oxy)-N-ethylbenzamide]
231 to 233 °C | O=C1c2ccc(-c3ccc(F)cc3)cc2CCN1[C@@H]1CCN(C2CCC2)C1 (as salt: hydrochloride) [Example 51, 2-[(3R)-1-cyclobutylpyrrolidin-3-yl]-6-(4-fluorophenyl)-3,4-dihydroisoquinolin-1(2H)-one]
279 to 281 °C | O=C(c1ccc(-c2ccc3c(c2)CCN([C@@H]2CCN(C4CCCCC4)C2)C3=O)cc1)N1CCCC1 (as salt: hydrochloride) [Example 57, 2-[(3R)-1-cyclohexylpyrrolidin-3-yl]-6-[4-(pyrrolidin-1-ylcarbonyl)phenyl]-3,4-dihydroisoquinolin-1(2H)-one]
> 300 °C | O=C(NC1CCCC1)c1ccc(Oc2ccc3c(c2)CCN(C2CCN(C4CCC4)CC2)C3=O)cc1 (as salt: hydrochloride) [Example 9, 4-{[2-(1-Cyclobutylpiperidin-4-yl)-1-oxo-1,2,3,4-tetrahydroisoquinolin-6-yl]oxy}-N-cyclopentylbenzamide]
